Experiments:
angiogenesis = settings: cited from earlier work
[1] = cited from earlier work
human MetAP2 enzyme [2] = molecular target: T1, human MetAP2 enzyme (Homo sapiens, UniProt P50579); experiment: MetAP2 enzyme assay, enzyme complexed with manganese ions; settings: MetAP2 Mn pIC50, MetAP2 enzyme complexed with manganese ions; Met-AMC substrate at Km
human MetAP2 enzyme [3] = molecular target: T1, human MetAP2 enzyme; experiment: MetAP2 enzyme assay, enzyme complexed with cobalt ions; settings: MetAP2 Co pIC50, MetAP2 enzyme complexed with cobalt ions; Met-AMC substrate at Km
Method: DNA encoding the full-length sequence of human MetAP2 enzyme is amplified by PCR and cloned into a pFastBac expression vector (Invitrogen). Recombinant baculovirus incorporating the MetAP2 construct is generated by transposition using the Bac-to-Bac system (Invitrogen). The expression of recombinant protein is carried out by infection of Spodoptera frugiperda Sf9 cells (Invitrogen) in 5 L Wave Bioreactors (Wave Biotech). Recombinant protein is isolated from cellular extracts by binding to an SP Hitrap Fast Flow or SP Sepharose (Sigma) column, and the protein is eluted using a NaCl gradient. Partially purified extracts of MetAP2 are further purified by an AKTA FPLC over a Superdex-200 column (GE). The purity of MetAP2 protein is determined on denaturing SDS-PAGE gel.
The results for each well are expressed as percent inhibition and calculated using the equation:

T1 sequence (P50579 whole entry): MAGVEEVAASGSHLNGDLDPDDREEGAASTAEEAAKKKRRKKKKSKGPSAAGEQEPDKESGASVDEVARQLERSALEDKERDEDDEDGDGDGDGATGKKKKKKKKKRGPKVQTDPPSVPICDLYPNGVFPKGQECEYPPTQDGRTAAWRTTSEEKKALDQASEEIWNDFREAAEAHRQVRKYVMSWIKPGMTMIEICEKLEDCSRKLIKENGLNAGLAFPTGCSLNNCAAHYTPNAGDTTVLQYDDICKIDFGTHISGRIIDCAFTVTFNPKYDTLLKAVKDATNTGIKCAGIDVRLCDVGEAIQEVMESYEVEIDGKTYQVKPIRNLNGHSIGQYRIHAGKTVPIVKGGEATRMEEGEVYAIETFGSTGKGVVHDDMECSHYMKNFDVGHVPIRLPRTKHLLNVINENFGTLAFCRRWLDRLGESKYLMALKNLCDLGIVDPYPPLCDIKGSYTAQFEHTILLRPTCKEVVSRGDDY

Compound | inhibition of angiogenesis (angiogenesis) | effect on diet-induced obesity ([1]; diet-induced obesity in mice) | food intake, body weight, fat mass, size of adipocytes ([1]; genetically and diet-induced obese mice) | IC50 (human MetAP2 enzyme [2]) | IC50 (human MetAP2 enzyme [3])
CO[C@@H]1[C@H](OC(=O)/C=C/C=C/C=C/C=C/C(=O)O)CC[C@]2(CO2)[C@H]1[C@@]1(C)O[C@@H]1CC=C(C)C [fumagillin] | inhibit angiogenesis | impair diet-induced obesity |  |  | 
CO[C@@H]1[C@H](OC(=O)/C=C/c2ccc(OCCN(C)C)cc2)CC[C@]2(CO2)[C@H]1[C@@]1(C)O[C@@H]1CC=C(C)C [CKD-732] |  |  | decrease food intake, body weight, fat mass, and the size of adipocytes |  | 
Cc1ncc(-c2cc(C(F)(F)F)cc3[nH]ncc23)n1C [Example 146, 4-(1,2-dimethyl-1H-imidazol-5-yl)-6-(trifluoromethyl)-1H-indazole] |  |  |  | 100 nM | 794 nM
Cc1n[nH]cc1-c1cc(C(F)(F)F)cc2[nH]ncc12 [Example 22, 4-(3-methyl-1H-pyrazol-4-yl)-6-(trifluoromethyl)-1H-indazole] |  |  |  | 5.01 nM | 39.8 nM
CN1CCN(C(=O)c2cnc(N)c(-c3cc(C(F)(F)F)cc4[nH]ncc34)c2)CC1 [Example 221, (6-amino-5-(6-(trifluoromethyl)-1H-indazol-4-yl)pyridin-3-yl)(4-methylpiperazin-1-yl)methanone] |  |  |  | 10 nM | 63.1 nM
NC(=O)c1ccc(-c2cc(C(F)(F)F)cc3[nH]ncc23)c(F)c1 [Example 321, 3-fluoro-4-(6-(trifluoromethyl)-1H-indazol-4-yl)benzamide] |  |  |  | 15.8 nM | 20 nM
NS(=O)(=O)c1ccc(-c2cc(C(F)(F)F)cc3[nH]ncc23)cc1 [Example 25, 4-(6-(trifluoromethyl)-1H-indazol-4-yl)benzenesulfonamide] |  |  |  | 7.94 nM | 50.1 nM
CCn1ncc(-c2cc(C(F)(F)F)cc3[nH]ncc23)c1C [Example 175, 4-(1-ethyl-5-methyl-1H-pyrazol-4-yl)-6-(trifluoromethyl)-1H-indazole] |  |  |  | 10 nM | 39.8 nM
Cc1ccc(C(=O)NCCO)cc1-c1cc(C(F)(F)F)cc2[nH]ncc12 [Example 368, N-(2-hydroxyethyl)-4-methyl-3-(6-(trifluoromethyl)-1H-indazol-4-yl)benzamide] |  |  |  | 12.6 nM | 31.6 nM
Cc1cc(Cn2nc(C)c(-c3cc(C(F)(F)F)cc4[nH]ncc34)c2CO)on1 (single isomer, unassigned) [Example 412, (3-methyl-1-((3-methylisoxazol-5-yl)methyl)-4-(6-(trifluoromethyl)-1H-indazol-4-yl)-1H-pyrazol-5-yl)methanol] |  |  |  | 3.98 nM | 15.8 nM
Cc1[nH]c(=O)ccc1-c1cc(C(F)(F)F)cc2[nH]ncc12 [Example 389, 6-methyl-5-(6-(trifluoromethyl)-1H-indazol-4-yl)pyridin-2(1H)-one] |  |  |  | 3.98 nM | 50.1 nM
CNc1ncc(-c2cc(C(F)(F)F)cc3[nH]ncc23)cn1 [Example 196, N-methyl-5-(6-(trifluoromethyl)-1H-indazol-4-yl)pyrimidin-2-amine] |  |  |  | 6.31 nM | 63.1 nM
CNC(=O)c1ccc(-c2cc(C(F)(F)F)cc3[nH]ncc23)cc1F [Example 92, 2-fluoro-N-methyl-4-(6-(trifluoromethyl)-1H-indazol-4-yl)benzamide] |  |  |  | 3.98 nM | 50.1 nM
CCOC(=O)Cn1cc(-c2cc(C(F)(F)F)cc3[nH]ncc23)cn1 [Example 260, ethyl 2-(4-(6-(trifluoromethyl)-1H-indazol-4-yl)-1H-pyrazol-1-yl)acetate] |  |  |  | 6.31 nM | 100 nM
Cc1nc(C(=O)NCCO)ccc1-c1cc(C(F)(F)F)cc2[nH]ncc12 [Example 387, N-(2-hydroxyethyl)-6-methyl-5-(6-(trifluoromethyl)-1H-indazol-4-yl)picolinamide] |  |  |  | 6.31 nM | 25.1 nM
Cn1c(-c2cc(C(F)(F)F)cc3[nH]ncc23)cc2ccccc21 [Example 51, 4-(1-methyl-1H-indol-2-yl)-6-(trifluoromethyl)-1H-indazole] |  |  |  | 100 nM | 2510 nM
Cn1ncc(-c2cc(C(F)(F)F)cc3[nH]ncc23)c1CO [Example 250, (1-methyl-4-(6-(trifluoromethyl)-1H-indazol-4-yl)-1H-pyrazol-5-yl)methanol] |  |  |  | 6.31 nM | 79.4 nM
Cc1nn(CC(N)=O)cc1-c1cc(C(F)(F)F)cc2[nH]ncc12 [Example 274, 2-(3-methyl-4-(6-(trifluoromethyl)-1H-indazol-4-yl)-1H-pyrazol-1-yl)acetamide] |  |  |  | 3.98 nM | 63.1 nM

Compound | inhibition of angiogenesis (angiogenesis) | effect on diet-induced obesity ([1]; diet-induced obesity in mice) | food intake, body weight, fat mass, size of adipocytes ([1]; genetically and diet-induced obese mice) | IC50 (human MetAP2 enzyme [2]) | IC50 (human MetAP2 enzyme [3])
O=c1[nH]cnc2[nH]nc(-c3cc(C(F)(F)F)cc4[nH]ncc34)c12 [Example 156, 3-(6-(trifluoromethyl)-1H-indazol-4-yl)-1H-pyrazolo[3,4-d]pyrimidin-4(5H)-one] |  |  |  | 31.6 nM | 501 nM
Cc1nc(NS(C)(=O)=O)ccc1-c1cc(C(F)(F)F)cc2[nH]ncc12 [Example 257, N-(6-methyl-5-(6-(trifluoromethyl)-1H-indazol-4-yl)pyridin-2-yl)methanesulfonamide] |  |  |  | 7.94 nM | 50.1 nM
O=C(c1cccc(-c2cc(C(F)(F)F)cc3[nH]ncc23)c1)N1CCCC1 [Example 85, pyrrolidin-1-yl(3-(6-(trifluoromethyl)-1H-indazol-4-yl)phenyl)methanone] |  |  |  | 6.31 nM | 79.4 nM
Cn1cc(C(=O)NCCO)cc(-c2cc(C(F)(F)F)cc3[nH]ncc23)c1=O [Example 315, N-(2-hydroxyethyl)-1-methyl-6-oxo-5-(6-(trifluoromethyl)-1H-indazol-4-yl)-1,6-dihydropyridine-3-carboxamide] |  |  |  | 10 nM | 316 nM
FC(F)(F)c1cc(-c2cnc3[nH]ccc3c2)c2cn[nH]c2c1 [Example 59, 4-(1H-pyrrolo[2,3-b]pyridin-5-yl)-6-(trifluoromethyl)-1H-indazole] |  |  |  | 12.6 nM | 79.4 nM
OCc1cccc(-c2cc(C(F)(F)F)cc3[nH]ncc23)c1 [Example 8, (3-(6-(trifluoromethyl)-1H-indazol-4-yl)phenyl)methanol] |  |  |  | 3.16 nM | 39.8 nM
NS(=O)(=O)c1ccc(-c2cc(C(F)(F)F)cc3[nH]ncc23)cc1F [Example 344, 2-fluoro-4-(6-(trifluoromethyl)-1H-indazol-4-yl)benzenesulfonamide] |  |  |  | 6.31 nM | 100 nM
NS(=O)(=O)c1ccc(-c2cc(C(F)(F)F)cc3[nH]ncc23)cn1 [Example 345, 5-(6-(trifluoromethyl)-1H-indazol-4-yl)pyridine-2-sulfonamide] |  |  |  | 5.01 nM | 100 nM
FC(F)(F)c1cc(-c2cn[nH]c2)c2cn[nH]c2c1 [Example 23, 4-(1H-pyrazol-4-yl)-6-(trifluoromethyl)-1H-indazole] |  |  |  | 6.31 nM | 100 nM
Cc1ccc(C(=O)N2CC(O)C2)cc1-c1cc(C(F)(F)F)cc2[nH]ncc12 [Example 369, (3-hydroxyazetidin-1-yl)(4-methyl-3-(6-(trifluoromethyl)-1H-indazol-4-yl)phenyl)methanone] |  |  |  | 10 nM | 31.6 nM
CN(C)C(=O)c1ccccc1-c1cc(C(F)(F)F)cc2[nH]ncc12 [Example 47, N,N-dimethyl-2-(6-(trifluoromethyl)-1H-indazol-4-yl)benzamide] |  |  |  | 50.1 nM | 501 nM
CNC(=O)c1ccc(-c2cc(C(F)(F)F)cc3[nH]ncc23)cn1 [Example 97, N-methyl-5-(6-(trifluoromethyl)-1H-indazol-4-yl)picolinamide] |  |  |  | 2.51 nM | 50.1 nM
Cc1nn(CCN(C)C)c(C)c1-c1cc(C(F)(F)F)cc2[nH]ncc12 [Example 219, 2-(3,5-dimethyl-4-(6-(trifluoromethyl)-1H-indazol-4-yl)-1H-pyrazol-1-yl)-N,N-dimethylethanamine] |  |  |  | 12.6 nM | 50.1 nM
COc1cc(C(N)=O)ccc1-c1cc(C(F)(F)F)cc2[nH]ncc12 [Example 306, 3-methoxy-4-(6-(trifluoromethyl)-1H-indazol-4-yl)benzamide] |  |  |  | 6.31 nM | 15.8 nM
Cn1cc(C(=O)NCC#N)cc(-c2cc(C(F)(F)F)cc3[nH]ncc23)c1=O [Example 354, N-(cyanomethyl)-1-methyl-6-oxo-5-(6-(trifluoromethyl)-1H-indazol-4-yl)-1,6-dihydropyridine-3-carboxamide] |  |  |  | 6.31 nM | 316 nM
O=C(NCCO)c1ccc(-c2cc(C(F)(F)F)cc3[nH]ncc23)c(Cl)c1 [Example 331, 3-chloro-N-(2-hydroxyethyl)-4-(6-(trifluoromethyl)-1H-indazol-4-yl)benzamide] |  |  |  | 10 nM | 15.8 nM
COc1ncccc1-c1cc(C(F)(F)F)cc2[nH]ncc12 [Example 53, 4-(2-methoxypyridin-3-yl)-6-(trifluoromethyl)-1H-indazole] |  |  |  | 5.01 nM | 39.8 nM

Reference: US9434743B2, “Indazole derivatives” (TAKEDA PHARMACEUTICAL COMPANY LIMITED, priority 2012, dated 2016)
